Experiment: xn = mol fraction of the nth substance listed
Conditions: 100 kPa

## CC[N+]1(C)CCCC1.COP(=O)([O-])OC + CCO
293.15 K, x1 = 0.1054
  viscosity: 3.4 mPa·s
293.15 K, x1 = 0.2015
  viscosity: 6.75 mPa·s
293.15 K, x1 = 0.306
  viscosity: 13.5 mPa·s
293.15 K, x1 = 0.4029
  viscosity: 23.1 mPa·s
293.15 K, x1 = 0.5052
  viscosity: 37.5 mPa·s
293.15 K, x1 = 0.6022
  viscosity: 57 mPa·s
293.15 K, x1 = 0.6938
  viscosity: 83.2 mPa·s
293.15 K, x1 = 0.8049
  viscosity: 120.2 mPa·s
293.15 K, x1 = 0.9073
  viscosity: 171 mPa·s
293.15 K, x1 = 1
  viscosity: 228 mPa·s
298.15 K, x1 = 0.0534
  viscosity: 2.03 mPa·s
298.15 K, x1 = 0.1054
  viscosity: 3.06 mPa·s
298.15 K, x1 = 0.2015
  viscosity: 6.07 mPa·s
298.15 K, x1 = 0.4029
  viscosity: 19.4 mPa·s
298.15 K, x1 = 0.5052
  viscosity: 30.3 mPa·s
298.15 K, x1 = 0.6022
  viscosity: 45.9 mPa·s
298.15 K, x1 = 0.6938
  viscosity: 64.5 mPa·s
298.15 K, x1 = 0.8049
  viscosity: 91.1 mPa·s
298.15 K, x1 = 0.9073
  viscosity: 127.5 mPa·s
298.15 K, x1 = 1
  viscosity: 169 mPa·s
303.15 K, x1 = 0.0534
  viscosity: 1.84 mPa·s
303.15 K, x1 = 0.1054
  viscosity: 2.75 mPa·s
303.15 K, x1 = 0.2015
  viscosity: 5.35 mPa·s
303.15 K, x1 = 0.306
  viscosity: 10.16 mPa·s
303.15 K, x1 = 0.4029
  viscosity: 16.43 mPa·s
303.15 K, x1 = 0.5052
  viscosity: 24.7 mPa·s
303.15 K, x1 = 0.6022
  viscosity: 36.3 mPa·s
303.15 K, x1 = 0.6938
  viscosity: 50.1 mPa·s
303.15 K, x1 = 0.8049
  viscosity: 70 mPa·s
303.15 K, x1 = 0.9073
  viscosity: 94.7 mPa·s
308.15 K, x1 = 0.0534
  viscosity: 1.7 mPa·s
308.15 K, x1 = 0.1054
  viscosity: 2.51 mPa·s
308.15 K, x1 = 0.1535
  viscosity: 3.68 mPa·s
308.15 K, x1 = 0.2015
  viscosity: 4.78 mPa·s
308.15 K, x1 = 0.306
  viscosity: 8.72 mPa·s
308.15 K, x1 = 0.4029
  viscosity: 13.96 mPa·s
308.15 K, x1 = 0.6022
  viscosity: 29.9 mPa·s
308.15 K, x1 = 0.8049
  viscosity: 54.9 mPa·s
308.15 K, x1 = 0.9073
  viscosity: 73.8 mPa·s
313.15 K, x1 = 0.0534
  viscosity: 1.59 mPa·s
313.15 K, x1 = 0.1054
  viscosity: 2.31 mPa·s
313.15 K, x1 = 0.1535
  viscosity: 3.33 mPa·s
313.15 K, x1 = 0.2015
  viscosity: 4.33 mPa·s
313.15 K, x1 = 0.306
  viscosity: 7.62 mPa·s
313.15 K, x1 = 0.4029
  viscosity: 11.88 mPa·s
313.15 K, x1 = 0.5052
  viscosity: 17.4 mPa·s
313.15 K, x1 = 0.6022
  viscosity: 24.6 mPa·s
313.15 K, x1 = 0.6938
  viscosity: 32.4 mPa·s
313.15 K, x1 = 0.8049
  viscosity: 44 mPa·s
313.15 K, x1 = 0.9073
  viscosity: 57.5 mPa·s
313.15 K, x1 = 1
  viscosity: 72.8 mPa·s
318.15 K, x1 = 0.0534
  viscosity: 1.47 mPa·s
318.15 K, x1 = 0.1535
  viscosity: 3.06 mPa·s
318.15 K, x1 = 0.2015
  viscosity: 3.97 mPa·s
318.15 K, x1 = 0.306
  viscosity: 6.71 mPa·s
318.15 K, x1 = 0.4029
  viscosity: 10.18 mPa·s
318.15 K, x1 = 0.5052
  viscosity: 14.83 mPa·s
318.15 K, x1 = 0.6022
  viscosity: 20.4 mPa·s
318.15 K, x1 = 0.6938
  viscosity: 27 mPa·s
318.15 K, x1 = 0.8049
  viscosity: 35.6 mPa·s
318.15 K, x1 = 0.9073
  viscosity: 46.3 mPa·s
318.15 K, x1 = 1
  viscosity: 56.4 mPa·s
323.15 K, x1 = 0.1054
  viscosity: 1.96 mPa·s
323.15 K, x1 = 0.306
  viscosity: 6.04 mPa·s
323.15 K, x1 = 0.4029
  viscosity: 8.85 mPa·s
323.15 K, x1 = 0.5052
  viscosity: 12.49 mPa·s
323.15 K, x1 = 0.6022
  viscosity: 17.4 mPa·s
323.15 K, x1 = 0.9073
  viscosity: 38 mPa·s
323.15 K, x1 = 1
  viscosity: 45.1 mPa·s
328.15 K, x1 = 0.0534
  viscosity: 1.27 mPa·s
328.15 K, x1 = 0.1535
  viscosity: 2.61 mPa·s
328.15 K, x1 = 0.306
  viscosity: 5.41 mPa·s
328.15 K, x1 = 0.4029
  viscosity: 7.81 mPa·s
328.15 K, x1 = 0.5052
  viscosity: 10.82 mPa·s
328.15 K, x1 = 0.6938
  viscosity: 19 mPa·s
328.15 K, x1 = 0.9073
  viscosity: 31 mPa·s
328.15 K, x1 = 1
  viscosity: 36.6 mPa·s
333.15 K, x1 = 0.0534
  viscosity: 1.18 mPa·s
333.15 K, x1 = 0.1054
  viscosity: 1.71 mPa·s
333.15 K, x1 = 0.1535
  viscosity: 2.42 mPa·s
333.15 K, x1 = 0.306
  viscosity: 4.85 mPa·s
333.15 K, x1 = 0.4029
  viscosity: 6.85 mPa·s
333.15 K, x1 = 0.5052
  viscosity: 9.31 mPa·s
333.15 K, x1 = 0.6022
  viscosity: 12.65 mPa·s
333.15 K, x1 = 0.6938
  viscosity: 16.05 mPa·s
333.15 K, x1 = 0.8049
  viscosity: 20.3 mPa·s
333.15 K, x1 = 0.9073
  viscosity: 24.5 mPa·s
333.15 K, x1 = 1
  viscosity: 29.8 mPa·s
338.15 K, x1 = 0.1054
  viscosity: 1.6 mPa·s
338.15 K, x1 = 0.1535
  viscosity: 2.23 mPa·s
338.15 K, x1 = 0.2015
  viscosity: 2.8 mPa·s
338.15 K, x1 = 0.306
  viscosity: 4.4 mPa·s
338.15 K, x1 = 0.4029
  viscosity: 6 mPa·s
338.15 K, x1 = 0.5052
  viscosity: 8 mPa·s
338.15 K, x1 = 0.6022
  viscosity: 10.78 mPa·s
338.15 K, x1 = 0.6938
  viscosity: 13.13 mPa·s
338.15 K, x1 = 0.8049
  viscosity: 16.7 mPa·s

— a compilation of properties of binary mixtures (doi:10.1016/j.fluid.2021.113175)
